# US9618507B2, “Methods of treating rheumatoid arthritis” (Betanien Hospital, priority 2014, dated 2017)
# Marks after values point to notes of the source that are not given here. Where a SMILES comes first, the peptide text is derived from it. [ ]: non-standard residue; d: D form. dPhe(4-Cl) = N[C@H](Cc1ccc(Cl)cc1)C(=O)O; d2Nal = N[C@H](Cc1ccc2ccccc2c1)C(=O)O; dCit = NC(=O)NCCC[C@@H](N)C(=O)O; d3Pal = N[C@H](Cc1cccnc1)C(=O)O
# Key:
# [1] = system: CRP; conditions: high gonadotropin patients, by day 15
# Protocol: The protocol-specified primary and secondary intention-to-treat endpoints of the original AGRA trial were analyzed in these post hoc analyses. The primary endpoint was the baseline-adjusted between-group difference in DAS28-CRP (Wells et al., supra) by day 5b. […] Multiplex technology (Luminex Inc., Austin, Tex.) measured these serum cytokines using high-sensitivity assays (sensitivities <0.5 pg/mL, allowing the detection of very low concentrations of cytokines) and identical lots of critical reagent of negligible cross-reactivity <2%, according to manufacturers' instructions (Bio-Rad, Hercules, Calif.). […]
# (§1) The original power calculation is previously reported (Kass A S, et al., Scand J Rheumatol Epub ahead of print 1 Nov. 2013). Baseline-adjusted between-group differences for all continuous endpoints were assessed with the use of analysis-of-covariance using outcome measurements at predefined time points as response variables, and treatment and baseline measurements as covariates. […]
# [2] = system: TNF-α; experiment: Example 2: serum cytokine, multiplex high-sensitivity assay, TNF-α; assay type: in vivo, human; conditions: high gonadotropin patients
# Protocol: (§2) The protocol-specified primary and secondary intention-to-treat endpoints of the original AGRA trial were analyzed in these post hoc analyses. The primary endpoint was the baseline-adjusted between-group difference in DAS28-CRP (Wells et al., supra) by day 5b. Secondary endpoints included the baseline-adjusted between-group difference in cytokines, proportions of patients achieving at least a 20%, 50%, and 70% improvement on the ACR scale (Felson D T, et al., Arthritis Rheum 1995; 38:727-35), categorical DAS28-CRP (European League Against […] [EULAR]) responses (Wells et al., supra; van Gestel A M, et al., Arthritis Rheum 1996; 39:34-40), DAS28-CRP≦3.2 (Wells et al., supra), DAS28-CRP<2.6 (Wells et al., supra), and the incidence of adverse events. Protocol-specified DAS28 outcomes were preferentially CRP-based rather than erythrocyte sedimentation rate (ESR)-based, as CRP usually changes before ESR. […] Multiplex technology (Luminex Inc., Austin, Tex.) measured these serum cytokines using high-sensitivity assays (sensitivities <0.5 pg/mL, allowing the detection of very low concentrations of cytokines) and identical lots of critical reagent of negligible cross-reactivity <2%, according to manufacturers' instructions (Bio-Rad, Hercules, Calif.). […] To enable intention-to-treat analyses with all patients N=53, non-detectable values were set at the lower limit of detection for cytokines, as is common for CRP values.
# as §1, with “covariates. Dichotomous endpoints were compared with the Pearson chi-square test or Suissa-Shuster exact unconditional test, depending on expected-value distribution (Lydersen S, et al., Stat Med 2009; 28:1159-75).” for “covariates.”
# [3] = system: interleukin-2; experiment: Example 2: serum cytokine, multiplex high-sensitivity assay, interleukin-2; assay type: in vivo, human; conditions: high gonadotropin patients
# Protocol: as §2
# (§3) The original power calculation is previously reported (Kass A S, et al., Scand J Rheumatol Epub ahead of print 1 Nov. 2013). Baseline-adjusted between-group differences for all continuous endpoints were assessed with the use of analysis-of-covariance using outcome measurements at predefined time points as response variables, and treatment and baseline measurements as covariates. Dichotomous endpoints were compared with the Pearson chi-square test or Suissa-Shuster exact unconditional test, depending on expected-value distribution (Lydersen S, et al., Stat Med 2009; 28:1159-75). No adjustments for multiple analyses were made, owing to highly correlated endpoints. Due to skewed distributions, between-group changes of natural log-transformed cytokine levels from baseline were compared.
# [4] = system: interleukin-10; experiment: Example 2: serum cytokine, multiplex high-sensitivity assay, interleukin-10; assay type: in vivo, human; conditions: high gonadotropin patients
# Protocol: as §2, §3
# [5] = molecular target: T1, GnRH receptors (Rattus norvegicus, UniProt P30969); conditions: rats; Rick F G, et al., Prostate 2011; cited from earlier work
# T1 construct: through GnRH receptors in rats; host or cells: rats (in vivo)
# T1 sequence (P30969 1-327): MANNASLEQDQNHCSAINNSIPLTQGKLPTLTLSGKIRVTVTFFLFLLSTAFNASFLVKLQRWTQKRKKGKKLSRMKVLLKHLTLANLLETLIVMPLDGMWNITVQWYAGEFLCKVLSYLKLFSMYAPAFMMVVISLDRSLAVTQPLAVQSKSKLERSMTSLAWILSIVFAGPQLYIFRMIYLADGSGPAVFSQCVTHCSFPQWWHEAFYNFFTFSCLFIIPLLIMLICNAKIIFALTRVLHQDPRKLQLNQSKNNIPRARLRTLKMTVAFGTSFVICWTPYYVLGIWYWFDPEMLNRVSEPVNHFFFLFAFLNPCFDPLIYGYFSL
smiles,measurement,setting,value
CC(=O)N[C@H](Cc1ccc2ccccc2c1)C(=O)N[C@H](Cc1ccc(Cl)cc1)C(=O)N[C@H](Cc1cccnc1)C(=O)N[C@@H](CO)C(=O)N[C@@H](Cc1ccc(O)cc1)C(=O)N[C@H](CCCNC(N)=O)C(=O)N[C@@H](CC(C)C)C(=O)N[C@@H](CCCNC(=N)N)C(=O)N1CCC[C@H]1C(=O)N[C@H](C)C(N)=O [cetrorelix] (Ac-[d2Nal][dPhe(4-Cl)][d3Pal]SY[dCit]LRP[dA]-NH2),CRP between-group difference,"[1]; 95% CI 0.22 to 10.7, P=0.042",5.45 mg/L
same,CRP change,[1]; placebo 0.85,-5.1 mg/L
same,"TNF-α level, Final Day 15","[2]; N = 27, mean ± SD",0.01 ± 2.1 log pg/mL
same,TNF-α Change from baseline by day 15,"[2]; N = 27, placebo +0.02",−0.45 log pg/mL
same,TNF-α Baseline-Adjusted Between-Group Difference,"[2]; day 15, 95% CI (0.01, 0.96), P < 0.05",0.49‡ log pg/mL
same,"IL-2 level, Final Day 15","[3]; N = 27, mean ± SD",−3.39 ± 2.9 log pg/mL
same,IL-2 Change from baseline by day 15,"[3]; N = 27, placebo +0.02",−0.42 log pg/mL
same,interleukin-2 change compared with placebo,"[3]; by day 15, P=0.088",decreased non-significantly
same,IL-2 Baseline-Adjusted Between-Group Difference,"[3]; day 15, 95% CI (−1.09, 0.08)",-0.51 log pg/mL
same,"IL-10 level, Final Day 15","[4]; N = 27, mean ± SD",−0.31 ± 2.1 log pg/mL
same,IL-10 Change from baseline by day 15,"[4]; N = 27, placebo +0.13",−0.40 log pg/mL
same,interleukin-10 change compared with placebo,"[4]; by day 15, P=0.020",significantly decreased
same,IL-10 Baseline-Adjusted Between-Group Difference,"[4]; day 15, 95% CI (0.10, 1.08), P < 0.05",0.59‡ log pg/mL
same,pro-inflammatory cytokine gene expression through GnRH receptors,[5],directly decrease
